Experimental data as given in ChEMBL document CHEMBL1138642, “In vitro advanced antimycobacterial screening of cobalt(II) and copper(II) complexes of fluorinated isonicotinoylhydrazones” (2004).

How the values were obtained:
[1] = system: Mycobacterium tuberculosis; experiment: Minimum bactericidal required against isoniazid resistant Mycobacterium tuberculosis was determined in monolayers of mouse bone marrow macrophages; format: functional
[2] = system: Mycobacterium tuberculosis; experiment: Minimum inhibition concentration required against isoniazid resistant Mycobacterium tuberculosis was determined in monolayers of mouse bone marrow macrophages; format: functional

`NNC(=O)c1ccncc1` [ISONIAZID] was tested, and the MBC [1] was greater than 1.6 µg/mL and the MIC [2] was greater than 0.2 µg/mL.
